Test [1] deals with MCF7. As to the kind of experiment: Cytotoxicity against human MCF7 cells assessed as decrease in cell viability incubated for 72 hrs by MTT assay. The class given is functional, cell-based. Particulars: MCF7, 72 h. A general note: Formazan colour is commonly taken as a measure of viable cells.
Test [2] deals with MCF7. As to the kind of experiment: Synergistic cytotoxicity against human MCF7 cells assessed as reduction in cell viability incubated for 72 hrs by MTT assay in presence of Noducyclamide B1. It counts as functional, cell-based.

≈ marks a conversion by molar mass, not a printed value. Calls of active or inactive are those of the source. The rule behind the calls is not given here.

A word on the IC50: it is the concentration at which inhibition is half-maximal. For `CCCCCCC[C@@H]1CC(=O)N[C@@H](CCC(N)=O)C(=O)N2C[C@H](O)C[C@H]2C(=O)N2CCC[C@H]2C(=O)N[C@@H](Cc2ccc(O)cc2)C(=O)N[C@H](CC(C)C)C(=O)N[C@@H](C(C)C)C(=O)N[C@H](C(C)(C)O)C(=O)N[C@@H](CC(C)C)C(=O)NCC(=O)N1`, the IC50 in test [1] is 9.6 µg/mL (≈ 8.22 µM). Further, the outcome in test [2] was inactive.
Regarding `CCCCCCC[C@@H]1CC(=O)N[C@@H](C(C)C)C(=O)N[C@H]([C@@H](O)C(C)C)C(=O)N[C@@H](C)C(=O)N[C@H]([C@@H](O)C(C)C)C(=O)N[C@@H](CCC(N)=O)C(=O)N(C)[C@@H]([C@@H](C)CC)C(=O)N[C@H](CC(N)=O)C(=O)N[C@H]([C@H](C)O)C(=O)N2C[C@H](O)C[C@H]2C(=O)N[C@H](C(C)C)C(=O)N[C@@H]([C@@H](C)O)C(=O)N1`, in test [1], the IC50 is 3 µg/mL (≈ 2.17 µM).
Regarding `CCCCCCC[C@@H]1CC(=O)N[C@@H](CCC(N)=O)C(=O)N2C[C@H](O)C[C@H]2C(=O)N2C[C@H](O)C[C@H]2C(=O)N[C@@H](Cc2ccc(O)cc2)C(=O)N[C@H](CC(C)C)C(=O)N[C@@H](C(C)C)C(=O)N[C@H](C(C)(C)O)C(=O)N[C@@H](CC(C)C)C(=O)NCC(=O)N1`, in test [1], the IC50 is 18 µg/mL (≈ 15.2 µM). Moreover, in test [2], the result was inactive.

Source of the values: ChEMBL document CHEMBL5620438, “Noducyclamides A1-A4, B1, and B2 from the Cyanobacterium Nodularia sp. NIES-3585” (J Nat Prod, 2024).
